Assay [1] has as its system Rattus norvegicus. In words: Neuroprotective activity against medial cerebral artery occlusion induced cerebral ischemia rat model assessed decrease in infarct volume at 0.1 mg/kg, ip qd administered 4 hrs post reperfusion and measured after 6 days by TTC staining based assay. Format: functional. Conditions: time 144 hrs. On the set-up: scale not given: the % may be the effect or the level left.

Assay [2] has as its system Rattus norvegicus. In words: Neuroprotective activity against medial cerebral artery occlusion induced cerebral ischemia rat model assessed decrease in infarct volume at 1 mg/kg, ip qd administered 4 hrs post reperfusion and measured after 6 days by TTC staining based assay. Format: functional. The note with it: time 144 hrs. Further details: scale not given: the % may be the effect or the level left.

Assay [3] can be described thus: Induction of TrkA phosphorylation in rat PC12 cells at 3 uM measured after 10 to 30 mins by Western blotting analysis relative to control. The note with it: time 10-30 min. Format: functional, PC-12. A general note: A western blot detects proteins with antibodies after separation by electrophoresis.
A short description of assay [4]: Neuroprotective activity against chick primary sensory neuron assessed as inhibition of BDNF-mediated neuronal survival. Format: functional, Gallus gallus.
Assay [5] addresses BDNF/NT-3 growth factors receptor (Homo sapiens) (UniProt Q16620). The experiment in a line: Agonist activity at human TrkB receptor in HEK293 cells assessed as increase in ERK phosphorylation at 0.001 to 1 uM relative to control. The assay is classed as cell-based. The note with it: filed as agonist, dose 0.001-1 µM.
Assay [6] has the same target. The experiment in a line: Agonist activity at human TrkB receptor in HEK293 cells assessed as increase in TrkB phosphorylation at 0.001 to 1 uM relative to control. Format: cell-based. Conditions: filed as agonist, dose 0.001-1 µM.
For assay [7], the target named is Hepatocyte growth factor (Homo sapiens) (UniProt P14210). In words: Activation of HGF in human A549 cells assessed as increase in Met phosphorylation. Format: cell-based.
Sequence of Hepatocyte growth factor (Homo sapiens) (P14210 32-494 limits assumed): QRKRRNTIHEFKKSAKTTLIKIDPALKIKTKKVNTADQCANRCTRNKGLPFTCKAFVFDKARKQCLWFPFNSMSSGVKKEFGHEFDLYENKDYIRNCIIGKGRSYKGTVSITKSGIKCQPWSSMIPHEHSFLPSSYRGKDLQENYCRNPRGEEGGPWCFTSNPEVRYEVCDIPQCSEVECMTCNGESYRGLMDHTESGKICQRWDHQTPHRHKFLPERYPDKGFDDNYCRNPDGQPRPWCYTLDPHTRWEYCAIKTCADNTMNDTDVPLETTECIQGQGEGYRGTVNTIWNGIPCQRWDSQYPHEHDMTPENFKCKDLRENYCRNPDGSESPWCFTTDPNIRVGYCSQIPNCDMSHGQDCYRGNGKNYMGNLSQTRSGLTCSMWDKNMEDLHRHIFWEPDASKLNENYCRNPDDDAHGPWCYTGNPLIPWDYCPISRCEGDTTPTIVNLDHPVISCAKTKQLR
Sequence of Hepatocyte growth factor (Homo sapiens) (P14210 495-728 limits assumed): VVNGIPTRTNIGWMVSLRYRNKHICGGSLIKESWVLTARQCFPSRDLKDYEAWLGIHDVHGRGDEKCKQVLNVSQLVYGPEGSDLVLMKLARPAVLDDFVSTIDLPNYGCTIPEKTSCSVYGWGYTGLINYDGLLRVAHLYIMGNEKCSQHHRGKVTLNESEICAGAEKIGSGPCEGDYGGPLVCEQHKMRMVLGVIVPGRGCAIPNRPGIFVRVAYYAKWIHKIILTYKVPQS

Six molecules from ChEMBL document CHEMBL5325458, “Growth factors and their peptide mimetics for treatment of traumatic brain injury” (2023) can be followed below.

Where a SMILES comes first, the peptide text is derived from it.

Sequence of BDNF/NT-3 growth factors receptor (Homo sapiens) (Q16620 32-822 limits assumed): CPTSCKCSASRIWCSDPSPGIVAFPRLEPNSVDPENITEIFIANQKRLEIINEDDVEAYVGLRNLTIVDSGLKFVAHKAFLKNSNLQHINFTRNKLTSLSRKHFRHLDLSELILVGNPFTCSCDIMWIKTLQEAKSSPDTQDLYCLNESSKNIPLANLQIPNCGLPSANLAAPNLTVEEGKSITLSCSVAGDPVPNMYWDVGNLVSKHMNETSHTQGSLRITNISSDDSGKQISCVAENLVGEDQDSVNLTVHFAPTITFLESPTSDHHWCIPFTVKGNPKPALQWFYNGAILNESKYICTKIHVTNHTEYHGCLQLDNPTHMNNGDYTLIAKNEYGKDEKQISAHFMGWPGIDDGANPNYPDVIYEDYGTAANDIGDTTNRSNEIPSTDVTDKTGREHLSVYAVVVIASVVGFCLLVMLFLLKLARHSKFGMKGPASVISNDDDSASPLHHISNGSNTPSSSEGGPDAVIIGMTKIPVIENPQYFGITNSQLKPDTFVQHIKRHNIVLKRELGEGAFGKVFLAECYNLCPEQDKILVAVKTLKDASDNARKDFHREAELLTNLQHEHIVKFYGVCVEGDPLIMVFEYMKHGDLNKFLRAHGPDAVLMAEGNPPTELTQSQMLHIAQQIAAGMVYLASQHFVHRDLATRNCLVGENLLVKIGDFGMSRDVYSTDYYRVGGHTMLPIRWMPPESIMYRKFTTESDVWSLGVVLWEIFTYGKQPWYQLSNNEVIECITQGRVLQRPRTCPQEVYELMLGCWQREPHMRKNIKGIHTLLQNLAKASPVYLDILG

`NCCCC[C@H](NCCCCCCNC(=O)[C@H](CCCCN)NC(=O)[C@H](CO)NC(=O)CCC(=O)O)C(=O)N[C@@H](CO)C(=O)CCC(=O)O` came in with an Activity with Rattus norvegicus [1] of approximately 66%.

In the case of `NCCCC[C@H](NC(=O)[C@H](Cc1c[nH]cn1)NCCCCCCNC(=O)[C@H](Cc1c[nH]cn1)NC(=O)[C@H](CCCCN)NC(=O)CCCO)C(=O)CCCO`, in the assay on Rattus norvegicus [2], the Activity was determined as 25%.

For the molecule `CC[C@H](C)[C@@H]1NC(=O)[C@H](CC(=O)O)NC(=O)[C@H]([C@@H](C)O)NC(=O)[C@H](N)CSSC[C@H](C(=O)N[C@H](C(=O)NCC(=O)N[C@@H](C)C(=O)N[C@H]2CSSC[C@@H](C(=O)O)NC(=O)[C@H](CCC(N)=O)NC(=O)[C@H](CCCCN)NC(=O)CNC(=O)[C@H](CC(=O)O)NC2=O)[C@@H](C)O)NC(=O)[C@H](CCCCN)NC(=O)CNC(=O)[C@H](CCCCN)NC1=O`, the Activity in assay [3] is approximately 75%.

For the molecule `CC(C)C[C@@H]1NC(=O)[C@H](CCC(N)=O)NC(=O)CNC(=O)[C@H](CCCCN)NC(=O)[C@H](CO)NC(=O)[C@H](C(C)C)NC(=O)[C@@H]2CCCN2C(=O)[C@H](C(C)C)NC(=O)[C@@H](N)CSSC[C@@H](C(=O)O)NC1=O` (HELM PEPTIDE1{C.V.P.V.S.K.G.Q.L.C}$PEPTIDE1,PEPTIDE1,1:R3-10:R3$$$V2.0), the “inhibition (INH)” value in assay [4] is 50%.

Take `CSCC[C@H](NC(=O)[C@H](CCCNC(=N)N)NC(=O)[C@@H]1CCCN1C(=O)[C@H](CC(C)C)NC(=O)[C@H](CO)NC(=O)[C@H](CC(N)=O)NC(=O)CC(N)CC(=O)[C@H](CC(N)=O)NC(=O)[C@H](CO)NC(=O)[C@H](CC(C)C)NC(=O)[C@@H]1CCCN1C(=O)[C@H](CCCNC(=N)N)NC(=O)[C@H](CCSC)NC(=O)[C@@H]1CSSC[C@H](C(N)=O)C(=O)N[C@@H](CC(C)C)C(=O)N[C@@H](CCCNC(=N)N)C(=O)N[C@@H](Cc2c[nH]c3ccccc23)C(=O)N[C@@H](CCCNC(=N)N)C(=O)N[C@@H](CCCNC(=N)N)C(=O)N[C@@H](C(C)C)C(=O)N[C@@H](CCCNC(=N)N)C(=O)N1)C(=O)N[C@H]1CSSC[C@@H](C(=O)N[C@@H](Cc2ccccc2)C(=O)O)NC(=O)[C@H](CC(C)C)NC(=O)[C@H](CCCNC(=N)N)NC(=O)[C@H](Cc2c[nH]c3ccccc23)NC(=O)[C@H](CCCNC(=N)N)NC(=O)[C@H](CCCNC(=N)N)NC(=O)[C@H](C(C)C)NC(=O)[C@H](CCCNC(=N)N)NC1=O` (some centres not stated) (HELM PEPTIDE1{L.R.W.R.R.V.R.C.M.R.P.L.S.[NC(=O)C[C@H](N[*:1])C(=O)CC(N)CC(=O)[*:2]].N.S.L.P.R.M.C.R.V.R.R.W.R.L.C.F}|CHEM1{[NC(=O)[C@@H](CS[*:2])C(=O)[*:1]]}$PEPTIDE1,PEPTIDE1,21:R3-29:R3|PEPTIDE1,CHEM1,1:R1-1:R1|PEPTIDE1,CHEM1,8:R3-1:R2$$$V2.0): the Activity in assay [5] and in assay [6] was 50% throughout.

Consider H-VVNGIPTR-OH, for which the Activity in assay [7] was found to be 25%.
